For experiment [1], the target named is T1, Serine/threonine-protein kinase mTOR (Homo sapiens, UniProt P42345). Description: Inhibition of mTOR.
Experiment [2] in a line: Selectivity ratio of IC50 for PI3Kaplha to IC50 for mTOR.
In experiment [3] the target is Phosphatidylinositol 4,5-bisphosphate 3-kinase catalytic subunit alpha isoform (Homo sapiens, UniProt P42336). Description: Inhibition of PI3Kalpha.
In experiment [4] the target is T1, Serine/threonine-protein kinase mTOR. The experiment in a line: Inhibition of mTOR-mediated p70S6K phosphorylation at Thr389 in human PC3 cells. Type of experiment: cell-based, PC-3.

Chain of Phosphatidylinositol 4,5-bisphosphate 3-kinase catalytic subunit alpha isoform (P42336 whole entry, canonical isoform): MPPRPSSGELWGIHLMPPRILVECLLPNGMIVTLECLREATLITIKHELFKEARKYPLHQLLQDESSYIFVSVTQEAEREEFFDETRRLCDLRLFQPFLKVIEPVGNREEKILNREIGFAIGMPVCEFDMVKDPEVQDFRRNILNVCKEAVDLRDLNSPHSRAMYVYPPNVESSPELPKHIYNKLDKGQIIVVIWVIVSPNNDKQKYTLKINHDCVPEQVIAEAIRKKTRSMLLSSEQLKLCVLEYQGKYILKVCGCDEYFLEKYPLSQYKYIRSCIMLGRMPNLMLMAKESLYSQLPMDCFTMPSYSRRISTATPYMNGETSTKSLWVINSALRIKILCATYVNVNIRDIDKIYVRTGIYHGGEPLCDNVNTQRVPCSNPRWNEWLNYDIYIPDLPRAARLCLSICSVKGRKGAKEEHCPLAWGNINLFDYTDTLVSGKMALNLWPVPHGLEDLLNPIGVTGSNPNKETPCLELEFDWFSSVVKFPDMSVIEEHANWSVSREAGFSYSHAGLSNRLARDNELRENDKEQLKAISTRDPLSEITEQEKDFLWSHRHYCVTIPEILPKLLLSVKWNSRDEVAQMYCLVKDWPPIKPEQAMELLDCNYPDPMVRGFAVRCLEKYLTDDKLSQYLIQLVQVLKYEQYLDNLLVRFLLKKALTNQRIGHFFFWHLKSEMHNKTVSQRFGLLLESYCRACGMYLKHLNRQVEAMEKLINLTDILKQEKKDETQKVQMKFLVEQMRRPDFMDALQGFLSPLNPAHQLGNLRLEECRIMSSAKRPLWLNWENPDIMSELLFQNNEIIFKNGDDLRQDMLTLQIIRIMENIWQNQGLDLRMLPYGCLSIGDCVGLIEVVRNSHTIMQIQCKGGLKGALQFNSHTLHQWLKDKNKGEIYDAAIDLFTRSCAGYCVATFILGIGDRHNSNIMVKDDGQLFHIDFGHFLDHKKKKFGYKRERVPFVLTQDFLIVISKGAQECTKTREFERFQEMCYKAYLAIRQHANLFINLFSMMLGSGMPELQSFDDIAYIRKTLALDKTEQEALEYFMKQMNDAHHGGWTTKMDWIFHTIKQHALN

Usually IC50 stands for the concentration at which inhibition is half-maximal. The low end stands for higher potency, the high end for lower potency. Consider `Cc1ccc(-c2nc(N3CCOCC3)nc(-n3ccnc3C)n2)c2cc[nH]c12`, for which the figures for the 50% inhibitory concentration (IC50) in experiment [1], in experiment [3] and in experiment [4] were 18 nM, 1100 nM and 84 nM, respectively. For the same molecule, the Ratio IC50 in experiment [2] is 60.
Take `Cc1nccn1-c1nc(-c2cnc(N)nc2)nc(N2CCOCC2)n1`: the IC50 in experiment [1] worked out at 420 nM; in experiment [3], 25 nM. The Ratio IC50 in experiment [2] came out at 0.06.
For `Cc1nccn1-c1nc(-c2cccc(O)c2)nc(N2CCOCC2)n1`, the values for the half-maximal inhibitory concentration (IC50) in experiment [1] and in experiment [3] were 95 nM and 53 nM, respectively. Besides, the Ratio IC50 in experiment [2] worked out at 0.6.
As to `FC(F)c1nc2ccccc2n1-c1nc(N2CCOCC2)nc(N2CCOCC2)n1` [ZSTK-474], in experiment [1], half-maximal inhibition (IC50) was put at 350 nM.
With `CCc1nccn1-c1nc(-c2cccc3[nH]ccc23)nc(N2CCOCC2)n1`, the IC50 in experiment [1] was 26 nM; in experiment [3] it was 89 nM; in experiment [4], 96 nM. The Ratio IC50 in experiment [2] is 3.4.
With `Clc1cccc(Nc2nc(N3CCOCC3)nc(-n3cccn3)n2)c1`, the results for the IC50 in experiment [1] and in experiment [3] were 570 nM and 2800 nM, respectively. Further, the Ratio IC50 in experiment [2] was found to be 4.9.
With `CCc1cc(C(F)(F)F)nn1-c1nc(-c2cccc3[nH]ccc23)nc(N2CCOCC2)n1`, the IC50 in experiment [1] was found to be 71 nM; in experiment [3], 4050 nM; in experiment [4], 490 nM. Further, in experiment [2], the Ratio IC50 stood at 57.

These data come from ChEMBL document CHEMBL1938252, “Structure-based optimization of morpholino-triazines as PI3K and mTOR inhibitors” (Bioorg Med Chem Lett, 2012).
